Measurements reported in PMC5934274 (Journal of medicinal chemistry, 2016).
Where two headings read alike, the source gives them in different places.

Experiments:
PARP2 = settings: read-out: KM NAD+ (literature); PARP2 FL row; cited from earlier work
PARP16 = target: T1, PARP16 (Homo sapiens, UniProt Q8N5Y8); settings: read-out: KM NAD+ (literature); PARP16 FL row; cited from earlier work
T1 sequence (Q8N5Y8 1-322): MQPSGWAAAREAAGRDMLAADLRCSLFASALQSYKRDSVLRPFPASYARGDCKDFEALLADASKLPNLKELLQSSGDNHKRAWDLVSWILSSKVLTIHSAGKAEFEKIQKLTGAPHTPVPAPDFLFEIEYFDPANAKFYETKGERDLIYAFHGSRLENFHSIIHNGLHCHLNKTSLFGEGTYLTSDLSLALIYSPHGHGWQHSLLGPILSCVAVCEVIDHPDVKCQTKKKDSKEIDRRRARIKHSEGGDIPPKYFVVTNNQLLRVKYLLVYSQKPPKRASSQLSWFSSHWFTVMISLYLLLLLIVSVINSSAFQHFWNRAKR

PARP14 = PARP14 (Homo sapiens, UniProt Q460N5); assay: In vitro ADP-ribosylation assay, PARP14; format: biochemical; settings: read-out: KM NAD+; PARP14 ART
PARP10 = target: T2, PARP10 (Homo sapiens, UniProt Q53GL7); settings: read-out: KM NAD+ (literature); PARP10 FL row; cited from earlier work
T2 sequence (Q53GL7 1-1025): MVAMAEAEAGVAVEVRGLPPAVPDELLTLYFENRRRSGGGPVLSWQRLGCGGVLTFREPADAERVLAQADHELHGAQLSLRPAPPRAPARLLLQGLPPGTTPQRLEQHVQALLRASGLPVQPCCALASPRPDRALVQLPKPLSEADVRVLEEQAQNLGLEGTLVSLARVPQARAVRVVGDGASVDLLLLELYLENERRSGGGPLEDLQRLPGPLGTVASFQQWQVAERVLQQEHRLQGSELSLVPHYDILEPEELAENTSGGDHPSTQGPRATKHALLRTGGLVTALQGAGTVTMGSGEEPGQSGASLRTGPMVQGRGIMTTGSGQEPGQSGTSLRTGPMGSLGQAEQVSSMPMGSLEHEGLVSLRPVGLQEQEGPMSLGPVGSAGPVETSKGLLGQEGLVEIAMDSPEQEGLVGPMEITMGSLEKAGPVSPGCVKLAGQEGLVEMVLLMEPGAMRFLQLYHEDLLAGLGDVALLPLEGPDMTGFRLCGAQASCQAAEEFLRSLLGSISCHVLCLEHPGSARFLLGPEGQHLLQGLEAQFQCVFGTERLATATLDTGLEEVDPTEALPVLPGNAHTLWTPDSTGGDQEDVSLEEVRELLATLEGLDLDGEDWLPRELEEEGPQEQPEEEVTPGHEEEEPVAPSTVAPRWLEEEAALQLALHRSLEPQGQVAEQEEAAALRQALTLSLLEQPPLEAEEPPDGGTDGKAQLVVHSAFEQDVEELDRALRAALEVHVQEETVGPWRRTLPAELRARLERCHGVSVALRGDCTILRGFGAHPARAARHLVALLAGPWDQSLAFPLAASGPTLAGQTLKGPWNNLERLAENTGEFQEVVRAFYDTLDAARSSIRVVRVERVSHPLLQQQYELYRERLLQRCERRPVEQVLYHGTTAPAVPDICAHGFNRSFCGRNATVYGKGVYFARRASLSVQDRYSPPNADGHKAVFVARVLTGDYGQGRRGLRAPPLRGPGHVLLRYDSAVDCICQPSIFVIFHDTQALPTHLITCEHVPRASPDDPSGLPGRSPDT

PARP1 [1] = settings: read-out: KM NAD+ (literature), cited from earlier work
PARP1 [2] = assay: In vitro ADP-ribosylation assay, PARP1; format: biochemical, human; settings: selectivity toward PARP1 and -2 over other PARP family members

PARP14, sequence (Q460N5 whole entry): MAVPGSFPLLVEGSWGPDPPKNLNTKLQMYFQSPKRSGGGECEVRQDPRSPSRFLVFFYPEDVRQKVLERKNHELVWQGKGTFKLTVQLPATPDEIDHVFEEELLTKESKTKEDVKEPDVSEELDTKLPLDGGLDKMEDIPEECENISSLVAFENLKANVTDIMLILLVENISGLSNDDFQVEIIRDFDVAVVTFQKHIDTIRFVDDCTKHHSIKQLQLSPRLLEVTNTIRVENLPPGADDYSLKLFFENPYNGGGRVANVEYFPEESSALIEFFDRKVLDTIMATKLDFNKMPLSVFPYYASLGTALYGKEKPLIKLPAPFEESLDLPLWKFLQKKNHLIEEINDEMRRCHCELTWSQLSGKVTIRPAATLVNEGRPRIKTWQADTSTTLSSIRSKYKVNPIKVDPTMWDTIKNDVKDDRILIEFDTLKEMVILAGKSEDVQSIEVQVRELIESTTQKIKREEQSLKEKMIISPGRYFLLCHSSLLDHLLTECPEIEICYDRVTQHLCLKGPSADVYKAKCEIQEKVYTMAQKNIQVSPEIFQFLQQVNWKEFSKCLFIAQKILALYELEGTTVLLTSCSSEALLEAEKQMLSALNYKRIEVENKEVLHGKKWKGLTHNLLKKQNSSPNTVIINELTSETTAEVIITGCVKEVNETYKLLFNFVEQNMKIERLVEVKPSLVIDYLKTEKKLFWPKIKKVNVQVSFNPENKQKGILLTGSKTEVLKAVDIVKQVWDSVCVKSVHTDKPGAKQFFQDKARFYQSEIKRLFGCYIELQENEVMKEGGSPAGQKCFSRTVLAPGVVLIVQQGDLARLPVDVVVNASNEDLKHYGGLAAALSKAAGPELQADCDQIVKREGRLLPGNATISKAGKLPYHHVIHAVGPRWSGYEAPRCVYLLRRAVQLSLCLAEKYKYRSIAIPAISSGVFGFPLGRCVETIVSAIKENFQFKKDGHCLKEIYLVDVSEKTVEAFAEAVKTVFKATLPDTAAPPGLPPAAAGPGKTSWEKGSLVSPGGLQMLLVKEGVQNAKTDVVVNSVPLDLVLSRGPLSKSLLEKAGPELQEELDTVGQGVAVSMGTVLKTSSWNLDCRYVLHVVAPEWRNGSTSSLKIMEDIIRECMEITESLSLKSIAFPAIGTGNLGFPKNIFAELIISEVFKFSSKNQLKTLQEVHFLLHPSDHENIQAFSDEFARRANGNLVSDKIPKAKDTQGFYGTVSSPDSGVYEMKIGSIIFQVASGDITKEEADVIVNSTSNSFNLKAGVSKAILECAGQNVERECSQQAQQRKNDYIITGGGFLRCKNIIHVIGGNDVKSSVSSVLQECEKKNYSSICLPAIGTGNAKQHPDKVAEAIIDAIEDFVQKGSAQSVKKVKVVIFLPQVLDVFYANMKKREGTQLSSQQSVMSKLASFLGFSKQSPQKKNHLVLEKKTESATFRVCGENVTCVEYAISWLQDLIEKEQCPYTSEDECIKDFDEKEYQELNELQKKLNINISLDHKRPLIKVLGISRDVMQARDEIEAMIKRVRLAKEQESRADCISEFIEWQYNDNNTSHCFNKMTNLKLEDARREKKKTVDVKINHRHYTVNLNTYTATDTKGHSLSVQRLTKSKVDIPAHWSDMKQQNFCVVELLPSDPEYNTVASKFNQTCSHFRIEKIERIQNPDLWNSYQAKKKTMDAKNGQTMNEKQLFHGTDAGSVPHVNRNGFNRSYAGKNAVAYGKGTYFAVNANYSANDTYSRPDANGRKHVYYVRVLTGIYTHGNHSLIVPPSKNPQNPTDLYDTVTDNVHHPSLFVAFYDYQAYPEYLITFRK

Row | Compound | Km (PARP2) [µM] | Km (PARP16) [µM] | Km (PARP14) [µM] | Km (PARP10) [µM] | Km (PARP1 [1]; PARP1 ART row) [µM] | Km (PARP1 [1]; PARP1 FL row) [µM] | IC50 values for PARP1 and -2 lower than those for other family members (PARP1 [2]) [fold]
1 | NC(=O)c1ccc[n+]([C@@H]2O[C@H](COP(=O)([O-])OP(=O)(O)OC[C@H]3O[C@@H](n4cnc5c(N)ncnc54)[C@H](O)[C@@H]3O)[C@@H](O)[C@H]2O)c1 [NAD+, nicotinamide adenine dinucleotide] | 130 | 280 | 62 ± 7 | 50 | 30 to 130 | 50 | 
2 | C[C@]1(c2nc3c(C(N)=O)cccc3[nH]2)CCCN1 [Veliparib] |  |  |  |  |  |  | > 100
